Assay results taken from patent US7994196B2, “Indazole compound and pharmaceutical use thereof” (Mitsubishi Tanabe Pharma Corporation, priority 2004, dated 2011).

test system: MMP-9 production; assay: Determination of MMP-9 Production Inhibitory Activity (PMA-stimulated HEC3 cells, gelatin zymography); type: cell-based; settings: Endothelial cell; immortalized human vascular endothelial cells HEC3, PMA 10^-7 M stimulation, 24 hr; test substance at 10, 2, 0.4 and 0.08 μM; read-out: IC50 (MMP-9 production inhibitory rate)
Experimental: Immortalized human vascular endothelial cells HEC3 (supplied by Prof. Iijima of Nagoya University) were subcultured in RPMI1640 medium (Sigma Ltd.) containing 10% fetal calf serum.
The HEC3 cells (5×10^4 cells/well) were plated on a 24-well plate, and cultured in RPMI1640 medium containing 10% fetal calf serum for 24 hr. Each well was washed once with serum-free RPMI1640 medium. Then, RPMI1640 medium (250 μl/well) containing 0.05% fetal calf serum was added to each well, and the cells were further cultured for 2 hr.
The supernatant was removed, and the test substances (Example compounds shown in Table 1) diluted to various concentrations were added and incubated for 1 hr in 0.05% serum-containing RPMI1640 medium and the supernatant was removed again. A medium containing a test substance having the same concentration as in the pre-treatment and PMA (10^−7 M), which is a stimulant, was added at 250 μl/well, and the cells were further cultured for 24 hr.
After completion of the culture, water (50 μl) and 25 μl of SDS buffer (240 mM Tris-HCl (pH 6.8), 8% SDS, 40% glycerol) were added to the culture supernatant (25 μl), and the mixture (10 μl) was electrophoresed on a 7.5% polyacrylamide gel containing 0.1% gelatin.
After the electrophoresis, the gel was washed with Tris-HCl buffer (pH 7.5) containing 0.5% Triton X-100 (Sigma Ltd.) for 1 hr. The gel was immersed in an activation buffer (150 mM NaCl, 50 mM Tris-HCl (pH 7.5), 10 mM CaCl2) at 37° C. for 18 hr to activate MMP-9, and then stained with CBB. The obtained MMP-9 band was converted to numerical values by a densitometer (ATTO. Ltd.).
The MMP-9 production inhibitory rate by the test substance was calculated by the following equation. MMP-9 production inhibitory rate=100−100×{(test substance addition value−non-stimulation value)/(PMA stimulation value−non-stimulation value)}
The MMP-9 production inhibitory rates of the test substance at 10, 2, 0.4 and 0.08 μM were calculated, and IC50 value of the each test substance was determined using an analysis soft (RegExcel).

| Compound | IC50 |
| --- | --- |
| N#CC1(c2ccc(Br)cc2Cl)CCN(C(=O)Nc2n[nH]c3ccccc23)CC1 [Ex. 48] | 770 nM |
| N#CC1(c2ccc(Cl)c(C(F)(F)F)c2)CCN(C(=O)Nc2n[nH]c3ccccc23)CC1 [Ex. 44] | 450 nM |

same assay, conditions: Homo sapiens, Endothelial cell, 24 h, immortalized human vascular endothelial cells HEC3, PMA 10^-7 M stimulation, test substance at 10, 2, 0.4 and 0.08 μM, read-out: IC50 (MMP-9 production inhibitory rate)

| Compound | IC50 |
| --- | --- |
| Cc1c(C(F)(F)F)cccc1C1(O)CCN(C(=O)Nc2n[nH]c3ccccc23)CC1 [Ex. 140, 4-hydroxy-4-[2-methyl-3-(trifluoromethyl)phenyl]-1-piperidinecarboxylic acid (1H-indazol-3-yl)amide] | 620 nM |
| Cc1ccc(C(F)(F)F)cc1C1(O)CCN(C(=O)Nc2n[nH]c3ccccc23)CC1 [Ex. 141, 4-hydroxy-4-[2-methyl-5-(trifluoromethyl)phenyl]-1-piperidinecarboxylic acid (1H-indazol-3-yl)amide] | 320 nM |
| Cn1c2c(c3ccccc31)CCN(C(=O)Nc1n[nH]c3ccccc13)C2 [Ex. 65] | 160 nM |
| O=C(Nc1n[nH]c2ccccc12)N1CCC(O)(c2cccc(Cl)c2F)CC1 [Ex. 20] | 320 nM |
| O=C(Nc1n[nH]c2ccccc12)N1CCC(O)(c2cc(F)cc(F)c2)CC1 [Ex. 12] | 610 nM |
| Cc1ccc(C)c(C2(O)CCN(C(=O)Nc3n[nH]c4ccccc34)CC2)c1 [Ex. 139, 4-(2,5-dimethylphenyl)-4-hydroxy-1-piperidinecarboxylic acid (1H-indazol-3-yl)amide] | 450 nM |
| Cc1cc(C2(O)CCN(C(=O)Nc3n[nH]c4ccccc34)CC2)ccc1F [Ex. 136, 4-(4-fluoro-3-methylphenyl)-4-hydroxy-1-piperidinecarboxylic acid (1H-indazol-3-yl)amide] | 410 nM |
| O=C(Nc1n[nH]c2ccccc12)N1CCc2c([nH]c3cccc(F)c23)C1 [Ex. 77] | 50 nM |
| O=C(Nc1n[nH]c2ccccc12)N1CCN(c2ccc(Cl)c(C(F)(F)F)c2)CC1 [Ex. 93, 4-[4-chloro-3-(trifluoromethyl)phenyl]-1-piperazinecarboxylic acid (1H-indazol-3-yl)amide] | 170 nM |
| O=C(Nc1n[nH]c2ccccc12)N1CCc2c(c(=O)oc3ccccc23)C1 [Ex. 103, 5-oxo-1,5-dihydro-2H-chromeno[3,4-c]pyridine-3-carboxylic acid (1H-indazol-3-yl)amide] | 60 nM |
| O=C(Nc1n[nH]c2ccccc12)N1CCC(O)(c2cc(F)cc(Cl)c2)CC1 [Ex. 22] | 330 nM |
| O=C(Nc1n[nH]c2ccccc12)N1CCc2c([nH]c3cc(Cl)c(F)cc23)C1 [Ex. 82, 7-chloro-6-fluoro-1,3,4,9-tetrahydro-β-carboline-2-carboxylic acid (1H-indazol-3-yl)amide] | 100 nM |
| Cc1cccc2c3c([nH]c12)CN(C(=O)Nc1n[nH]c2ccccc12)CC3 [Ex. 79, 8-methyl-1,3,4,9-tetrahydro-β-carboline-2-carboxylic acid (1H-indazol-3-yl)amide] | 160 nM |
| CCc1cccc(C2(O)CCN(C(=O)Nc3n[nH]c4ccccc34)CC2)c1 [Ex. 31] | 550 nM |
| O=C(Nc1n[nH]c2ccccc12)N1CCn2c(nc3ccccc32)C1 [Ex. 105, 3,4-dihydropyrazino[1,2-a]benzimidazole-2-carboxylic acid (1H-indazol-3-yl)amide] | 40 nM |
| Cc1ccc(C2(O)CCN(C(=O)Nc3n[nH]c4ccccc34)CC2)cc1Cl [Ex. 132, 4-(3-chloro-4-methylphenyl)-4-hydroxy-1-piperidinecarboxylic acid (1H-indazol-3-yl)amide] | 390 nM |
| O=C(Nc1n[nH]c2ccccc12)N1CCC(O)(c2ccc3c(c2)OCO3)CC1 [Ex. 27] | 940 nM |
| Cc1ccc(F)c(C2(O)CCN(C(=O)Nc3n[nH]c4ccccc34)CC2)c1 [Ex. 130, 4-(2-fluoro-5-methylphenyl)-4-hydroxy-1-piperidinecarboxylic acid (1H-indazol-3-yl)amide] | 620 nM |
| O=C(Nc1n[nH]c2ccccc12)N1CCc2c(sc3ccccc23)C1 [Ex. 80, 3,4-dihydro[1]benzothieno[2,3-c]pyridine-2-carboxylic acid (1H-indazol-3-yl)amide] | 250 nM |
| O=C(Nc1n[nH]c2ccccc12)N1CCC(O)(c2cc(Cl)ccc2Cl)CC1 [Ex. 33] | 310 nM |
| O=C(Nc1n[nH]c2ccccc12)N1CCc2c([nH]c3cccc(Cl)c23)C1 [Ex. 78, 5-chloro-1,3,4,9-tetrahydro-β-carboline-2-carboxylic acid (1H-indazol-3-yl)amide] | 280 nM |
| COc1ccc2[nH]c3c(c2c1)CCN(C(=O)Nc1n[nH]c2ccccc12)C3 [Ex. 73] | 90 nM |
| O=C(Nc1n[nH]c2ccccc12)N1CCC(c2cccc(C(F)(F)F)c2)CC1 [Ex. 112, 4-[3-(trifluoromethyl)phenyl]piperidine-1-carboxylic acid (1H-indazol-3-yl)amide] | 700 nM |

| Compound | IC50 |
| --- | --- |
| O=C(Nc1n[nH]c2ccccc12)N1CCC(O)(c2cc(C(F)(F)F)cc(C(F)(F)F)c2)CC1 [Ex. 34] | 430 nM |
| COCCn1c2c(c3ccccc31)CCN(C(=O)Nc1n[nH]c3ccccc13)C2 [Ex. 66] | 630 nM |
| O=C(Nc1n[nH]c2ccccc12)N1CC=C(c2cccc(C(F)(F)F)c2)CC1 [Ex. 61] | 100 nM |
| O=C(Nc1n[nH]c2ccccc12)N1CCc2c([nH]c3ccc(C(F)(F)F)cc23)C1 [Ex. 69] | 160 nM |
| COc1ccc(N2CCN(C(=O)Nc3n[nH]c4ccccc34)CC2)cc1C(F)(F)F [Ex. 95, 4-[4-methoxy-3-(trifluoromethyl)phenyl]-1-piperazinecarboxylic acid (1H-indazol-3-yl)amide] | 510 nM |
| CN(C)CC1c2[nH]c3ccccc3c2CCN1C(=O)Nc1n[nH]c2ccccc12 (stereo not drawn) [Ex. 108, 1-[(dimethylamino)methyl]-1,3,4,9-tetrahydro-β-carboline-2-carboxylic acid (1H-indazol-3-yl)amide] | 670 nM |
| O=C(Nc1n[nH]c2ccccc12)N1CC=C(c2ccccc2)CC1 [Ex. 49] | 260 nM |
| O=C(Nc1n[nH]c2ccccc12)N1CCc2c([nH]c(=O)c3ccccc23)C1 [Ex. 109, 6-oxo-1,4,5,6-tetrahydrobenzo[c]-1,7-naphthyridine-3-carboxylic acid (1H-indazol-3-yl)amide] | 140 nM |
| Cc1cc(C)cc(C2(O)CCN(C(=O)Nc3n[nH]c4ccccc34)CC2)c1 [Ex. 143, 4-(3,5-dimethylphenyl)-4-hydroxy-1-piperidinecarboxylic acid (1H-indazol-3-yl)amide] | 280 nM |
| CC1CN(C(=O)Nc2n[nH]c3ccccc23)CCN1c1ccc(Cl)c(C(F)(F)F)c1 (centres unmarked) [Ex. 117] | 930 nM |
| O=C(Nc1n[nH]c2ccccc12)N1CCC(O)(c2cc(F)cc(C(F)(F)F)c2)CC1 [Ex. 6] | 290 nM |
| N#Cc1cccc(C2(O)CCN(C(=O)Nc3n[nH]c4ccccc34)CC2)c1 [Ex. 29] | 910 nM |
| O=C(Nc1n[nH]c2ccccc12)N1CCc2c([nH]c3cc(F)ccc23)C1 [Ex. 71] | 140 nM |
| Cc1cc(C2(O)CCN(C(=O)Nc3n[nH]c4ccccc34)CC2)ccc1Cl [Ex. 23] | 450 nM |
| O=C(Nc1n[nH]c2ccccc12)N1CCc2c([nH]c3cc(Cl)c(C(F)(F)F)cc23)C1 [Ex. 83, 7-chloro-6-(trifluoromethyl)-1,3,4,9-tetrahydro-β-carboline-2-carboxylic acid (1H-indazol-3-yl)amide] | 420 nM |
| O=C(Nc1n[nH]c2ccccc12)N1CCN(c2ccc(Cl)c(Cl)c2)CC1 [Ex. 98, 4-(3,4-dichlorophenyl)-1-piperazinecarboxylic acid (1H-indazol-3-yl)amide] | 220 nM |
| Cc1ccc(C2(O)CCN(C(=O)Nc3n[nH]c4ccccc34)CC2)cc1C [Ex. 142, 4-(3,4-dimethylphenyl)-4-hydroxy-1-piperidinecarboxylic acid (1H-indazol-3-yl)amide] | 400 nM |
| O=C(Nc1n[nH]c2ccccc12)N1CCc2c([nH]c3ccc(F)cc23)C1 [Ex. 70] | 60 nM |
| Cc1ccc2[nH]c3c(c2c1)CCN(C(=O)Nc1n[nH]c2ccccc12)C3 [Ex. 81, 6-methyl-1,3,4,9-tetrahydro-β-carboline-2-carboxylic acid (1H-indazol-3-yl)amide] | 100 nM |
| O=C(Nc1n[nH]c2ccccc12)N1CC=C(c2cccs2)CC1 [Ex. 60] | 130 nM |
| O=C(Nc1n[nH]c2ccccc12)N1CCC(F)(c2ccc(Cl)c(C(F)(F)F)c2)CC1 [Ex. 123, 4-[4-chloro-3-(trifluoromethyl)phenyl]-4-fluoropiperidine-1-carboxylic acid (1H-indazol-3-yl)amide] | 730 nM |
| Cc1c(Cl)cccc1C1(O)CCN(C(=O)Nc2n[nH]c3ccccc23)CC1 [Ex. 131, 4-(3-chloro-2-methylphenyl)-4-hydroxy-1-piperidinecarboxylic acid (1H-indazol-3-yl)amide] | 440 nM |
